According to article PMC5218480 (PLoS ONE, 2017):

Tested on: MV-4-11 cells
Assay: Gene expression microarray analysis (Affymetrix PrimeView) and GSEA
Format: cell-based, human
Design: RFU PODN (11730768_x_at) / Fold change /veh PODN (11730768_x_at) / RFU LINC00158 (11744669_a_at) / Fold change /veh LINC00158 (11744669_a_at) / RFU DUSP10 (11751237_a_at) / Fold change /veh DUSP10 (11751237_a_at) / RFU ID3 (11757404_x_at) / Fold change /veh ID3 (11757404_x_at) / RFU PLEKHG5 (11737974_s_at) / Fold change /veh PLEKHG5 (11737974_s_at) / RFU LRRC4B (11730491_at) / Fold change /veh LRRC4B (11730491_at) / RFU GIMAP4 (11747438_a_at) / Fold change /veh GIMAP4 (11747438_a_at) / RFU KRT8 (11758183_x_at) / Fold change /veh KRT8 (11758183_x_at) / RFU CNN1 (11734310_a_at) / Fold change /veh CNN1 (11734310_a_at) / RFU VPS37D (11726825_at) / Fold change /veh VPS37D (11726825_at) / RFU C10orf10 (11716522_x_at) / Fold change /veh C10orf10 (11716522_x_at) / RFU KIR2DL2 /// KIR2DL4 /// KIR2DL5A /// KIR2DL5B /// KIR2DS1 /// KIR2DS2 /// KIR2DS3 /// KIR2DS4 /// KIR3DL3 /// KIR3DL3 /// KIR3DS1 (11738374_at) / Fold change /veh KIR2DL2 /// KIR2DL4 /// KIR2DL5A /// KIR2DL5B /// KIR2DS1 /// KIR2DS2 /// KIR2DS3 /// KIR2DS4 /// KIR3DL3 /// KIR3DL3 /// KIR3DS1 (11738374_at) / RFU C1QL1 (11718748_at) / Fold change /veh C1QL1 (11718748_at) / RFU TMPRSS4 (11747572_a_at) / Fold change /veh TMPRSS4 (11747572_a_at) / RFU HAMP (11756126_x_at) / Fold change /veh HAMP (11756126_x_at) / RFU RNFT2 (11725882_a_at) / Fold change /veh RNFT2 (11725882_a_at) / RFU NR4A2 (11747474_a_at) / Fold change /veh NR4A2 (11747474_a_at) / RFU ABCC12 (11746883_a_at) / Fold change /veh ABCC12 (11746883_a_at) / RFU TMEM136 (11760407_x_at) / Fold change /veh TMEM136 (11760407_x_at) / RFU CLDN22 /// WWC2 (11732394_at) / Fold change /veh CLDN22 /// WWC2 (11732394_at) / RFU HLA-DPB1 (11760878_x_at) / Fold change /veh HLA-DPB1 (11760878_x_at) / RFU SPINT1 (11716480_a_at) / Fold change /veh SPINT1 (11716480_a_at) / RFU GAP43 (11754022_s_at) / Fold change /veh GAP43 (11754022_s_at) / RFU A4GNT (11735810_at) / Fold change /veh A4GNT (11735810_at) / RFU PRB3 (11715151_x_at) / Fold change /veh PRB3 (11715151_x_at) / RFU TUBB4B (11761932_at) / Fold change /veh TUBB4B (11761932_at) / RFU CAPN14 (11732068_a_at) / Fold change /veh CAPN14 (11732068_a_at) / RFU TMCC2 (11721928_a_at) / Fold change /veh TMCC2 (11721928_a_at) / RFU IRGQ (11745062_a_at) / Fold change /veh IRGQ (11745062_a_at) / RFU FAM174B (11720279_a_at) / Fold change /veh FAM174B (11720279_a_at) / RFU TMPRSS4 (11748680_a_at) / Fold change /veh TMPRSS4 (11748680_a_at) / RFU FAM212B (11763350_a_at) / Fold change /veh FAM212B (11763350_a_at) / RFU PLEKHG5 (11743358_a_at) / Fold change /veh PLEKHG5 (11743358_a_at) / RFU ZSCAN30 (11745921_a_at) / Fold change /veh ZSCAN30 (11745921_a_at) / RFU CMKLR1 (11741424_a_at) / Fold change /veh CMKLR1 (11741424_a_at) / RFU LOC101060620 /// MAPK8IP1 (11723275_at) / Fold change /veh LOC101060620 /// MAPK8IP1 (11723275_at) / RFU SPTSSB (11747773_x_at) / Fold change /veh SPTSSB (11747773_x_at) / RFU PRSS12 (11739890_at) / Fold change /veh PRSS12 (11739890_at) / RFU BIN1 (11741810_x_at) / Fold change /veh BIN1 (11741810_x_at) / RFU WNT11 (11732464_a_at) / Fold change /veh WNT11 (11732464_a_at) / RFU C10orf10 (11716521_a_at) / Fold change /veh C10orf10 (11716521_a_at) / RFU C5orf56 (11738089_at) / Fold change /veh C5orf56 (11738089_at) / RFU CYB561 (11721691_x_at) / Fold change /veh CYB561 (11721691_x_at) / RFU ANKRD19P (11752326_a_at) / Fold change /veh ANKRD19P (11752326_a_at) / RFU OR2T12 /// OR2T33 /// OR2T8 (11738714_s_at) / Fold change /veh OR2T12 /// OR2T33 /// OR2T8 (11738714_s_at) / RFU VCAN (11748164_a_at) / Fold change /veh VCAN (11748164_a_at) / RFU JSRP1 (11732532_at) / Fold change /veh JSRP1 (11732532_at) / RFU KRTAP10-11 (11738290_x_at) / Fold change /veh KRTAP10-11 (11738290_x_at) / RFU MYO3A (11730013_a_at) / Fold change /veh MYO3A (11730013_a_at) / RFU EBF3 (11725865_a_at) / Fold change /veh EBF3 (11725865_a_at) / RFU CAMK2N1 (11719241_x_at) / Fold change /veh CAMK2N1 (11719241_x_at) / RFU C5orf56 (11738088_a_at) / Fold change /veh C5orf56 (11738088_a_at) / RFU OLFML3 (11715873_a_at) / Fold change /veh OLFML3 (11715873_a_at) / RFU LOC100653217 /// NTM (11731650_a_at) / Fold change /veh LOC100653217 /// NTM (11731650_a_at) / RFU MAPK11 (11762145_a_at) / Fold change /veh MAPK11 (11762145_a_at) / RFU FIZ1 (11724087_x_at) / Fold change /veh FIZ1 (11724087_x_at) / RFU OASL (11726364_x_at) / Fold change /veh OASL (11726364_x_at) / RFU SOX15 (11748057_x_at) / Fold change /veh SOX15 (11748057_x_at) / RFU CD79A (11719716_a_at) / Fold change /veh CD79A (11719716_a_at) / RFU HIST1H1D (11736915_at) / Fold change /veh HIST1H1D (11736915_at) / RFU CASKIN2 (11723855_a_at) / Fold change /veh CASKIN2 (11723855_a_at) / RFU LOC730098 (11760151_x_at) / Fold change /veh LOC730098 (11760151_x_at) / RFU OR4N2 (11742367_at) / Fold change /veh OR4N2 (11742367_at) / RFU PRRT2 (11749266_a_at) / Fold change /veh PRRT2 (11749266_a_at) / RFU SNX32 (11753110_a_at) / Fold change /veh SNX32 (11753110_a_at) / RFU CDHR5 (11726645_a_at) / Fold change /veh CDHR5 (11726645_a_at) / RFU RCAN1 (11760418_a_at) / Fold change /veh RCAN1 (11760418_a_at) / RFU FAM167A (11723789_a_at) / Fold change /veh FAM167A (11723789_a_at) / RFU FAM26E (11764081_at) / Fold change /veh FAM26E (11764081_at) / RFU ISYNA1 (11749810_s_at) / Fold change /veh ISYNA1 (11749810_s_at) / RFU ACY1 (11761880_at) / Fold change /veh ACY1 (11761880_at) / RFU 11764098_at / Fold change /veh 11764098_at / RFU SAMD14 (11745864_x_at) / Fold change /veh SAMD14 (11745864_x_at) / RFU NPB (11741838_a_at) / Fold change /veh NPB (11741838_a_at) / RFU TMPRSS6 (11731388_a_at) / Fold change /veh TMPRSS6 (11731388_a_at) / RFU KRTAP10-2 (11738614_at) / Fold change /veh KRTAP10-2 (11738614_at) / RFU ARHGAP8 /// PRR5-ARHGAP8 (11727945_x_at) / Fold change /veh ARHGAP8 /// PRR5-ARHGAP8 (11727945_x_at) / RFU KRTAP5-7 /// NADSYN1 (11734609_at) / Fold change /veh KRTAP5-7 /// NADSYN1 (11734609_at) / RFU RASL12 (11751679_a_at) / Fold change /veh RASL12 (11751679_a_at) / RFU CDKN2B (11736163_a_at) / Fold change /veh CDKN2B (11736163_a_at) / RFU PRF1 (11729649_at) / Fold change /veh PRF1 (11729649_at) / RFU, ZNF638 /// ZNF638-IT1 / Fold change vs veh, ZNF638 /// ZNF638-IT1 / RFU, PANK3 / Fold change vs veh, PANK3 / RFU, SH3YL1 / Fold change vs veh, SH3YL1 / RFU, ZEB2 / Fold change vs veh, ZEB2 / RFU, NRIP1 / Fold change vs veh, NRIP1 / RFU, PTTG1IP / Fold change vs veh, PTTG1IP / RFU, CAPN2 / Fold change vs veh, CAPN2 / RFU, MED14 / Fold change vs veh, MED14 / RFU, SNORA58 / Fold change vs veh, SNORA58 / RFU, C1orf63 / Fold change vs veh, C1orf63 / RFU, LRRFIP1 / Fold change vs veh, LRRFIP1 / RFU, NDUFAF7 / Fold change vs veh, NDUFAF7 / RFU, SLC12A2 / Fold change vs veh, SLC12A2 / RFU, IBTK / Fold change vs veh, IBTK / RFU, ESF1 / Fold change vs veh, ESF1 / Fold change vs veh, TMEM50B / RFU, TAOK1 / Fold change vs veh, TAOK1 / RFU, ACBD3 / Fold change vs veh, ACBD3 / RFU, TMA16 / Fold change vs veh, TMA16 / RFU, RWDD3 / Fold change vs veh, RWDD3 / RFU, BCAT1 / Fold change vs veh, BCAT1 / RFU, EDEM3 / Fold change vs veh, EDEM3 / RFU, TMEM33 / Fold change vs veh, TMEM33 / RFU, WDR75 / Fold change vs veh, WDR75 / RFU, AHCTF1 / Fold change vs veh, AHCTF1 / RFU, TFRC / Fold change vs veh, TFRC / RFU, ZDHHC17 / Fold change vs veh, ZDHHC17 / RFU, NOM1 / Fold change vs veh, NOM1 / RFU, ARL8B / Fold change vs veh, ARL8B / RFU, ZBTB11 / Fold change vs veh, ZBTB11 / RFU, TAMM41 / Fold change vs veh, TAMM41 / RFU, KIAA1704 /// LOC100996395 / Fold change vs veh, KIAA1704 /// LOC100996395 / RFU, ING1 / Fold change vs veh, ING1 / RFU, TRMT61B / Fold change vs veh, TRMT61B / RFU, FUBP3 / Fold change vs veh, FUBP3 / RFU, TP53 / Fold change vs veh, TP53 / RFU, TNKS2 / Fold change vs veh, TNKS2 / RFU, ZFP14 / Fold change vs veh, ZFP14 / RFU, ACTR2 / Fold change vs veh, ACTR2 / RFU, PPP3R1 / Fold change vs veh, PPP3R1 / RFU, PIK3R1 / Fold change vs veh, PIK3R1 / RFU, HNRNPA1 / Fold change vs veh, HNRNPA1 / RFU, RNF170 / Fold change vs veh, RNF170 / RFU, ZNF28 / Fold change vs veh, ZNF28 / RFU, RNGTT / Fold change vs veh, RNGTT / RFU, OGT / Fold change vs veh, OGT / RFU, BRD1 / Fold change vs veh, BRD1 / RFU, MARS / Fold change vs veh, MARS / RFU, ZNF655 / Fold change vs veh, ZNF655 / RFU, FAHD1 / Fold change vs veh, FAHD1 / RFU, BDP1 / Fold change vs veh, BDP1 / RFU, LRRCC1 / Fold change vs veh, LRRCC1 / RFU, ARID1A / Fold change vs veh, ARID1A / RFU, ZNF146 / Fold change vs veh, ZNF146 / RFU, ZNF330 / Fold change vs veh, ZNF330 / RFU, GPN3 / Fold change vs veh, GPN3 / RFU, C9orf123 / Fold change vs veh, C9orf123 / RFU, N4BP2L2 / Fold change vs veh, N4BP2L2 / RFU, ARFIP1 / Fold change vs veh, ARFIP1 / RFU, FAM179B / Fold change vs veh, FAM179B / RFU, BCL10 / Fold change vs veh, BCL10 / RFU, UHRF1BP1L / Fold change vs veh, UHRF1BP1L / RFU, BET1 / Fold change vs veh, BET1 / RFU, CNOT2 / Fold change vs veh, CNOT2 / RFU, ZNF268 / Fold change vs veh, ZNF268 / Fold change vs veh, ZNF507 / RFU, DGCR2 / Fold change vs veh, DGCR2 / RFU, WDSUB1 / Fold change vs veh, WDSUB1 / Fold change vs veh, HSP90B1 /// MIR3652 / RFU, ADSS / Fold change vs veh, ADSS / RFU, GK / Fold change vs veh, GK / RFU, ZNF148 / Fold change vs veh, ZNF148 / RFU, TAF9 / Fold change vs veh, TAF9 / RFU, SLC1A5 / Fold change vs veh, SLC1A5 / RFU, SLMO2 / Fold change vs veh, SLMO2 / RFU, ABCC4 / Fold change vs veh, ABCC4 / RFU, LOC101060439 /// RAP1B / Fold change vs veh, LOC101060439 /// RAP1B / RFU, RFX7 / Fold change vs veh, RFX7 / RFU, GTPBP10 / Fold change vs veh, GTPBP10 / RFU, CNEP1R1 / Fold change vs veh, CNEP1R1 / RFU, BIVM-ERCC5 /// ERCC5 / Fold change vs veh, BIVM-ERCC5 /// ERCC5 / RFU, ILF3 / Fold change vs veh, ILF3 / RFU 11762660_at / Fold change /veh 11762660_at / RFU VCAN (11757783_s_at) / Fold change /veh VCAN (11757783_s_at) / RFU DDX43 (11728927_at) / Fold change /veh DDX43 (11728927_at) / RFU KRT8 (11758188_x_at) / Fold change /veh KRT8 (11758188_x_at) / RFU NKD1 (11759106_at) / Fold change /veh NKD1 (11759106_at) / RFU SRD5A1 (11742802_a_at) / Fold change /veh SRD5A1 (11742802_a_at) / RFU TPSAB1 /// TPSB2 (11721975_s_at) / Fold change /veh TPSAB1 /// TPSB2 (11721975_s_at) / RFU GSTM3 (11746129_a_at) / Fold change /veh GSTM3 (11746129_a_at) / RFU IL23R (11737362_x_at) / Fold change /veh IL23R (11737362_x_at) / RFU TMEM51 (11727254_a_at) / Fold change /veh TMEM51 (11727254_a_at) / RFU PIWIL2 (11732686_x_at) / Fold change /veh PIWIL2 (11732686_x_at) / RFU ORM1 (11744905_x_at) / Fold change /veh ORM1 (11744905_x_at) / RFU CCDC152 (11743942_at) / Fold change /veh CCDC152 (11743942_at) / RFU ECM1 (11717891_a_at) / Fold change /veh ECM1 (11717891_a_at) / RFU IL23R (11748794_a_at) / Fold change /veh IL23R (11748794_a_at) / RFU TNFAIP8L3 (11732012_x_at) / Fold change /veh TNFAIP8L3 (11732012_x_at) / RFU MBOAT4 (11741988_at) / Fold change /veh MBOAT4 (11741988_at) / RFU 11764193_at / Fold change /veh 11764193_at / RFU TMEM53 (11763286_at) / Fold change /veh TMEM53 (11763286_at) / RFU MAGEB2 (11727129_at) / Fold change /veh MAGEB2 (11727129_at) / RFU TMEM200A (11744735_a_at) / Fold change /veh TMEM200A (11744735_a_at) / RFU CCDC152 (11751479_a_at) / Fold change /veh CCDC152 (11751479_a_at) / RFU FAM211A (11726209_a_at) / Fold change /veh FAM211A (11726209_a_at) / RFU RGS16 (11746705_a_at) / Fold change /veh RGS16 (11746705_a_at) / RFU VCAN (11755009_s_at) / Fold change /veh VCAN (11755009_s_at) / RFU RHOB (11743442_s_at) / Fold change /veh RHOB (11743442_s_at) / RFU RGS16 (11720943_a_at) / Fold change /veh RGS16 (11720943_a_at) / RFU RGS16 (11720944_at) / Fold change /veh RGS16 (11720944_at) / RFU, VPS4B / Fold change vs veh, VPS4B / RFU, CREB1 / Fold change vs veh, CREB1 / RFU, DNAJC13 / Fold change vs veh, DNAJC13 / RFU, GNAQ / Fold change vs veh, GNAQ / RFU, CDK5R1 / Fold change vs veh, CDK5R1 / RFU, ZRANB3 / Fold change vs veh, ZRANB3 / RFU, CUL4A / Fold change vs veh, CUL4A / RFU, CCNY / Fold change vs veh, CCNY / RFU, UFL1 / Fold change vs veh, UFL1 / RFU, COG3 / Fold change vs veh, COG3 / RFU, DIAPH2 / Fold change vs veh, DIAPH2 / RFU, SKA2 / Fold change vs veh, SKA2 / RFU, AFF3 / Fold change vs veh, AFF3 / RFU, LMF1 / Fold change vs veh, LMF1 / RFU, IPO11 / Fold change vs veh, IPO11 / RFU, DFFB / Fold change vs veh, DFFB / RFU, FOXP1 / Fold change vs veh, FOXP1 / RFU, CARD8 / Fold change vs veh, CARD8 / RFU, STRN3 / Fold change vs veh, STRN3 / RFU, ADK / Fold change vs veh, ADK / RFU, RASSF2 / Fold change vs veh, RASSF2 / RFU, WIPF1 / Fold change vs veh, WIPF1 / RFU, LARP1B / Fold change vs veh, LARP1B / RFU, RASA1 / Fold change vs veh, RASA1 / RFU, RB1 / Fold change vs veh, RB1 / RFU, PPFIA1 / Fold change vs veh, PPFIA1 / RFU, MAT2A / Fold change vs veh, MAT2A / RFU, CCT5 / Fold change vs veh, CCT5 / RFU, WDR92 / Fold change vs veh, WDR92 / RFU, CUX1 / Fold change vs veh, CUX1 / RFU, TTC7A / Fold change vs veh, TTC7A / RFU, TMEM135 / Fold change vs veh, TMEM135 / RFU, DEPTOR / Fold change vs veh, DEPTOR / RFU, CPM / Fold change vs veh, CPM / RFU, DNAJB6 / Fold change vs veh, DNAJB6 / RFU, CACNA2D3 / Fold change vs veh, CACNA2D3 / RFU, DTX4 / Fold change vs veh, DTX4 / RFU, TFCP2 / Fold change vs veh, TFCP2 / RFU, GMCL1 /// GMCL1P1 / Fold change vs veh, GMCL1 /// GMCL1P1 / RFU, AEBP2 / Fold change vs veh, AEBP2 / RFU, SNHG1 /// SNORD22 /// SNORD25 /// SNORD26 /// SNORD27 /// SNORD28 /// SNORD29 /// SNORD31 / Fold change vs veh, SNHG1 /// SNORD22 /// SNORD25 /// SNORD26 /// SNORD27 /// SNORD28 /// SNORD29 /// SNORD31 / Fold change (Aza/veh), C12orf56 (ProbeSet 11735607_a_at) / Fold change (ACY-1035/veh), C12orf56 (ProbeSet 11735607_a_at) / Fold change (Aza/veh), FGFR1OP (ProbeSet 11751329_s_at) / Fold change (ACY-1035/veh), FGFR1OP (ProbeSet 11751329_s_at) / Fold change (Aza/veh), VPS36 (ProbeSet 11739960_a_at) / Fold change (ACY-1035/veh), VPS36 (ProbeSet 11739960_a_at) / RFU SYPL1 (11715823_x_at) / Fold change /veh SYPL1 (11715823_x_at) / RFU IGFBP7 (11715501_s_at) / Fold change /veh IGFBP7 (11715501_s_at) / RFU REEP3 (11722064_at) / Fold change /veh REEP3 (11722064_at) / RFU IGLL1 (11728026_x_at) / Fold change /veh IGLL1 (11728026_x_at): dose or concentration left out as unconfirmed
Conditions: ProbeSet 11755159_a_at; LIST D

**Q.** `Nc1ccc(-c2cccs2)cc1NC(=O)c1ccc2c(c1)cc(C1CC1)n2CCN1CCOCC1` [ACY-1035] was tested. Which “RFU, COG3” value did it give?
**A.** The value was 86.80 RFU.
